PubChem BioAssay AID328 (DTP/NCI, 2004)
Where “and” joins values, the source holds several entries; their conditions need not be identical. Equal entries are not always repeated. Toxic doses and inconclusive results are not listed.

System: BDF1 mice, P388 leukemia ip, median survival T/C
Experiment: NCI In Vivo Anticancer Drug Screen. Data for tumor model P388 Leukemia (intraperitoneal) in B6D2F1 (BDF1) mice
Conditions: endpoint: median survival time, higher = longer survival
In short: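 Compound-treated tumour-bearing mice were compared with vehicle-treated controls. Survival was recorded, and the value is the treated-group measurement divided by the control-group measurement (T/C).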

[1] = dose: 100.0 mg/kg/injection, schedule: Q04DX003 (ip), vehicle: saline with Tween-80
[2] = dose: 200.0 mg/kg/injection, schedule: Q04DX003 (ip), vehicle: saline with Tween-80
[3] = dose: 400.0 mg/kg/injection, schedule: Q04DX003 (ip), vehicle: saline with Tween-80
[4] = dose: 100.0 mg/kg/injection, schedule: Q04DX003 (ip), vehicle: saline
[5] = dose: 200.0 mg/kg/injection, schedule: Q04DX003 (ip), vehicle: saline
[6] = dose: 400.0 mg/kg/injection, schedule: Q04DX003 (ip), vehicle: saline
[7] = dose: 50.0 mg/kg/injection, schedule: Q01DX009 (ip), vehicle: saline with Tween-80
[8] = dose: 100.0 mg/kg/injection, schedule: Q01DX009 (ip), vehicle: saline with Tween-80
[9] = dose: 200.0 mg/kg/injection, schedule: Q01DX009 (ip), vehicle: saline with Tween-80
[10] = dose: 50.0 mg/kg/injection, schedule: Q04DX003 (ip), vehicle: Klucel (hydroxypropylcellulose) (HPC)
[11] = dose: 100.0 mg/kg/injection, schedule: Q04DX003 (ip), vehicle: Klucel (hydroxypropylcellulose) (HPC)
[12] = dose: 200.0 mg/kg/injection, schedule: Q04DX003 (ip), vehicle: Klucel (hydroxypropylcellulose) (HPC)
[13] = dose: 50.0 mg/kg/injection, schedule: Q01DX009 (ip), vehicle: saline
[14] = dose: 100.0 mg/kg/injection, schedule: Q01DX009 (ip), vehicle: saline
[15] = dose: 200.0 mg/kg/injection, schedule: Q01DX009 (ip), vehicle: saline
[16] = dose: 25.0 mg/kg/injection, schedule: Q01DX009 (ip), vehicle: Klucel (hydroxypropylcellulose) (HPC)
[17] = dose: 50.0 mg/kg/injection, schedule: Q01DX009 (ip), vehicle: Klucel (hydroxypropylcellulose) (HPC)
[18] = dose: 400.0 mg/kg/injection, schedule: Q01DX009 (ip), vehicle: saline with Tween-80
[19] = dose: 100.0 mg/kg/injection, schedule: Q01DX009 (ip), vehicle: Klucel (hydroxypropylcellulose) (HPC)

CC[n+]1ccc(Nc2ccc(NC(=O)c3ccc(Nc4cc[n+](CC)c5ccc(N)cc45)cc3)cc2)cc1
T/C (dose: 0.02 mg/kg/injection, schedule: Q01DX010 (ip), vehicle: saline): 115 % of control | T/C (dose: 0.1 mg/kg/injection, schedule: Q01DX010 (ip), vehicle: saline): 110 % of control | T/C (dose: 0.5 mg/kg/injection, schedule: Q01DX009 (ip), vehicle: water): 154 % of control | T/C (dose: 0.5 mg/kg/injection, schedule: Q01DX010 (ip), vehicle: saline): 170 % of control | T/C (dose: 1.0 mg/kg/injection, schedule: Q01DX009 (ip), vehicle: water): 158 % of control | T/C (dose: 1.0 mg/kg/injection, schedule: Q01DX010 (ip), vehicle: saline): 195 % of control | T/C (dose: 2.0 mg/kg/injection, schedule: Q01DX009 (ip), vehicle: water): 212 % of control | T/C (dose: 2.0 mg/kg/injection, schedule: Q01DX010 (ip), vehicle: saline): 275 % of control | T/C (dose: 4.0 mg/kg/injection, schedule: Q01DX009 (ip), vehicle: water): 250 % of control | T/C (dose: 4.0 mg/kg/injection, schedule: Q01DX010 (ip), vehicle: saline): 120 % of control | T/C (dose: 8.0 mg/kg/injection, schedule: Q01DX009 (ip), vehicle: water): 116 % of control | T/C (dose: 8.0 mg/kg/injection, schedule: Q01DX010 (ip), vehicle: saline): 100 % of control

CCOC(=O)/C(C#N)=C/N=c1ncccn1C
T/C [1]: 98 % of control | T/C [2]: 93 % of control | T/C [3]: 102 % of control

CCC(C)(O)C#CC(C)(O)CC (stereo unspecified)
T/C [4]: 91 % of control | T/C [5]: 91 % of control | T/C [6]: 87 % of control

OCC1OC(O)C(O)C(O)C1O (stereo unspecified)
T/C (dose: 500.0 mg/kg/injection, schedule: Q01DX009 (ip), vehicle: saline): 124 % of control | T/C (dose: 500.0 mg/kg/injection, schedule: Q04DX003 (ip), vehicle: saline): 100 % of control | T/C (dose: 1000.0 mg/kg/injection, schedule: Q01DX009 (ip), vehicle: saline): 117 % of control | T/C (dose: 1000.0 mg/kg/injection, schedule: Q04DX003 (ip), vehicle: saline): 100 % of control | T/C (dose: 2000.0 mg/kg/injection, schedule: Q01DX009 (ip), vehicle: saline): 120 % of control | T/C (dose: 2000.0 mg/kg/injection, schedule: Q04DX003 (ip), vehicle: saline): 100 % of control | T/C (dose: 4000.0 mg/kg/injection, schedule: Q01DX009 (ip), vehicle: saline): 100 % of control | T/C (dose: 4000.0 mg/kg/injection, schedule: Q04DX003 (ip), vehicle: saline): 102 % of control

O=C(/C=C/c1ccc(OCc2ccccc2)cc1)c1ccc(Br)cc1
T/C [7]: 91 % of control | T/C [8]: 86 % of control | T/C [9]: 87 % of control

ClCCOCCOc1ccc(C2CCCCC2)cc1
T/C [4]: 100 % of control | T/C [5]: 100 % of control | T/C [6]: 100 % of control

COc1cc(OC)cc(C(N)=O)c1
T/C [10]: 100 % of control | T/C [11]: 95 % of control | T/C [12]: 100 % of control

O=C(NCc1ccco1)C(=O)NCc1ccco1
T/C [7]: 87 % of control | T/C [8]: 90 % of control | T/C [9]: 98 % of control

CCC(C)(C)C(=O)O
T/C [13]: 100 % of control | T/C (dose: 50.0 mg/kg/injection, schedule: Q04DX003 (ip), vehicle: saline): 100 % of control | T/C [14]: 105 % of control | T/C [1]: 105 % of control | T/C [4]: 104 % of control | T/C [15]: 110 % of control | T/C [2]: 110 % of control | T/C [5]: 100 % of control | T/C [3]: 100 % of control

CC(=O)NNc1ccccc1
T/C (dose: 12.5 mg/kg/injection, schedule: Q01DX009 (ip), vehicle: Klucel (hydroxypropylcellulose) (HPC)): 109 % of control | T/C [16]: 109 % of control | T/C [17]: 100 % of control | T/C [12]: 117 % of control

COc1ccc(CCNC(=O)/C=C\C(=O)O)cc1OC
T/C [8]: 95 % of control | T/C [9]: 95 % of control | T/C [18]: 100 % of control

O=CN1CCCC1C(=O)O (stereo unspecified)
T/C (dose: 6.25 mg/kg/injection, schedule: Q01DX009 (ip), vehicle: water): 103 % of control | T/C (dose: 12.5 mg/kg/injection, schedule: Q01DX009 (ip), vehicle: water): 99 % of control | T/C (dose: 25.0 mg/kg/injection, schedule: Q01DX009 (ip), vehicle: water): 96 % of control | T/C (dose: 50.0 mg/kg/injection, schedule: Q01DX009 (ip), vehicle: water): 94 % of control

CC(=O)Nc1ccc(C(=O)NN)cc1
T/C [8]: 108 % of control | T/C [9]: 105 % of control | T/C [18]: 97 % of control

CC#CCOCC(CCl)OC(=O)Nc1ccccc1 (stereo unspecified)
T/C [8]: 100 % of control | T/C [1]: 120 % of control | T/C [9]: 112 % of control | T/C [2]: 110 % of control | T/C [18]: 108 % of control | T/C [3]: 100 % of control

Cc1ccc(N)c(Br)c1
T/C (dose: 25.0 mg/kg/injection, schedule: Q01DX009 (ip), vehicle: saline with Tween-80): 100 % of control | T/C [7]: 109 % of control | T/C [8]: 118 % of control

CCCCCCCC(=O)Nc1ccc(C)c(C)c1
T/C [1]: 109 % of control | T/C [2]: 109 % of control | T/C [3]: 109 % of control

Cc1cc2nccc(/C=C/c3ccc(N(C)C)cc3)c2cc1C
T/C [7]: 112 % of control | T/C [8]: 120 % of control | T/C [9]: 98 % of control

COc1cc(OC)cc(-c2n[se]c(-c3cc(OC)cc(OC)c3)n2)c1
T/C (dose: 0.19 mg/kg/injection, schedule: Q01DX009 (ip), vehicle: saline with Tween-80): 114 % of control | T/C (dose: 0.39 mg/kg/injection, schedule: Q01DX009 (ip), vehicle: saline with Tween-80): 98 % of control | T/C (dose: 0.78 mg/kg/injection, schedule: Q01DX009 (ip), vehicle: saline with Tween-80): 104 % of control | T/C (dose: 1.56 mg/kg/injection, schedule: Q01DX009 (ip), vehicle: saline with Tween-80): 107 % of control

CN(C)c1ccc(C2N(Cc3ccccc3)CCC3CCCCN32)cc1 (stereo unspecified)
T/C [7]: 99 % of control | T/C [8]: 92 % of control

CC(=O)CSc1ncnc2nc[nH]c12
T/C [8]: 109 % of control | T/C [9]: 109 % of control

c1ccc2c(c1)C1CC(N3CCCCC3)C2c2ccccc21 (stereo unspecified)
T/C [19]: 90 % of control | T/C [11]: 95 % of control | T/C (dose: 200.0 mg/kg/injection, schedule: Q01DX009 (ip), vehicle: Klucel (hydroxypropylcellulose) (HPC)): 86 % of control | T/C [12]: 100 % of control | T/C (dose: 400.0 mg/kg/injection, schedule: Q01DX009 (ip), vehicle: Klucel (hydroxypropylcellulose) (HPC)): 90 % of control | T/C (dose: 400.0 mg/kg/injection, schedule: Q04DX003 (ip), vehicle: Klucel (hydroxypropylcellulose) (HPC)): 91 % of control

CC(=O)OC1CCC2(C)C3CCC4(C)C(O)CCC4C3CC(O)C2(O)C1 (stereo unspecified)
T/C [13]: 103 % of control | T/C [14]: 88 % of control | T/C [15]: 107 % of control

CC(C)(C)c1cc([N+](=O)[O-])cc(C(C)(C)C)c1O
T/C [16]: 90 % of control and 100 % of control | T/C (dose: 25.0 mg/kg/injection, schedule: Q04DX003 (ip), vehicle: Klucel (hydroxypropylcellulose) (HPC)): 100 % of control | T/C [17]: 96 % of control and 109 % of control | T/C [10]: 86 % of control and 88 % of control | T/C [19]: 95 % of control and 96 % of control | T/C [11]: 86 % of control and 88 % of control | T/C [12]: 92 % of control

CC(C)C(O)(C(=O)OCC1=CC[N+]2([O-])CCC(O)C12)C(C)O (stereo unspecified)
T/C (dose: 200.0 mg/kg/injection, schedule: Q01DX006 (ip), vehicle: water): 110 % of control | T/C (dose: 800.0 mg/kg/injection, schedule: Q01DX006 (ip), vehicle: water): 100 % of control | T/C (dose: 1600.0 mg/kg/injection, schedule: Q01DX006 (ip), vehicle: water): 94 % of control

Cc1ccc2nc3c(nc2c1)-c1cccc2cccc-3c12
T/C [1]: 87 % of control | T/C [2]: 91 % of control | T/C [3]: 91 % of control

CC1Cc2c(Cl)cc(C(=O)NC(Cc3ccccc3)C(=O)O)c(O)c2C(=O)O1 (stereo unspecified)
T/C (dose: 0.25 mg/kg/injection, schedule: Q01DX009 (ip), vehicle: saline): 98 % of control | T/C (dose: 0.5 mg/kg/injection, schedule: Q01DX009 (ip), vehicle: saline): 116 % of control | T/C (dose: 1.0 mg/kg/injection, schedule: Q01DX009 (ip), vehicle: saline): 115 % of control

O=CC(/C=N\Nc1ccccc1)=N/Nc1ccccc1
T/C (dose: 20.0 mg/kg/injection, schedule: Q01DX009 (ip), vehicle: saline with Tween-80): 100 % of control | T/C (dose: 80.0 mg/kg/injection, schedule: Q01DX009 (ip), vehicle: saline with Tween-80): 89 % of control
